The values below come from patent publication US8741570B2, “Thermo-optical characterisation of nucleic acid molecules” (Ludwig-Maximilians-Universitat Munchen, priority 2008, dated 2014).

Series [1] can be described thus: Hydration entropy from literature. Format: physicochemical. To be noted: linear scaling with surface area using radius a=2 nm. The source says:
The intercept ST(λDH=0), where ionic contributions are zero, also scales with particle surface and is described by a hydration entropy per particle surface of shyd=−1400 J/(molKμm^2). The value matches the literature values for similar surfaces reasonably well^30,31. […] Linear scaling with its surface area by using a radius of a=2 nm results in a value of shyd=−2500 J/(molKμm^2), in qualitative agreement with our result. The hydration entropy is a highly informative molecule parameter which is notoriously difficult to measure, yielding an interesting application for thermodiffusion.

For series [2] the following is noted: at a comparable temperature; cited from earlier work.
A further series has as its system bacteriophage lambda DNA. In words: DNA hybridization thermophoresis of labelled probe with lambda DNA. The format is binding. As for the experimental part: Typical target molecules are longer than 20 bases and double stranded. For target molecules longer than 20 bases and double stranded, one has to expect a competing reaction between the labeled probe and the target DNA strands containing the same “probe-sequence”. […] The concentration change is determined in samples containing the pure DNA probe and in solutions containing the probe mixed with lambda DNA. We checked twice for the hybridization of probe DNA and lambda DNA. First after simply mixing of the molecules and second after an additional annealing procedure (94° C., 5 min and 72° C., 5 min) was carried out.
The experiment shown in FIG. 38 (b) is performed at a constant concentration of 40 nM probe DNA and 10 nM target DNA. All samples are preferably measured in a 100 μm-1 mm Capillary. The thermo-optical properties of the probe DNA have been determined in an independent experiment, followed by a mix of probe and target. […]
After an equilibration time of preferably 10 seconds a first capillary can be measured. […]
Step 1. […] (The thermo-optical properties (i.e. concentration change) of the free probe molecule is known from an independent experiment. Alternatively the thermo-optical behavior of a DNA molecule similar to the probe, but not complementary to a target molecule, is measured simultaneously in a multiplex approach (internal reference)).
Step 2. […] The immediately established local spatial temperature distribution causes the labeled primers and elongated primers (as well as internal reference standards) to drift to lower or higher temperatures, depending on the particular molecule to be analyzed and conditions like pH, salt concentration etc. […] The maximum temperature elevation is set below values which would harm the molecules to be analyzed or hinder their hybridization. […]
Step 3. During the laser heating an image of the fluorescence distribution is recorded (or multiple frames which may be averaged to a single image). Afterwards the infrared laser and the fluorescence excitation light source are turned off. […]

Series [3] is described as follows: Thermodiffusion (Soret coefficient) by microfluidic fluorescence imaging / single particle tracking. The format is physicochemical. To be noted: 50 μM dye in 10 mM TRIS buffer, concentration over time method.

{AF700} = Alexa Fluor 700 fluorescent dye

As to `C[C@H](NS(=O)(=O)c1cccc2c(N(C)C)cccc12)C(=O)O` [Dansyl-Alanine], in series [1], the “hydration entropy per surface shyd” value is on record as −2500 J/(molKμm^2). The hydration entropy in series [2] was −0.13 J/(molK).

As to “5′-GATGAGTTCGTGTCCGTACAACTGG-3′ (DNA, 5' {AF700}, backbone and methylation of C not given here) [probe]”, the concentration change was −2% with bacteriophage lambda DNA (free probe, 40 nM); −3% with bacteriophage lambda DNA (probe 40 nM mixed with 10 nM lambda DNA, without annealing procedure); −10% with bacteriophage lambda DNA (probe 40 nM with 10 nM lambda DNA after denaturing (94° C., 5 min) and annealing (72° C., 5 min)).

Take BCECF: the “Soret coefficient ST” value in series [3] was 0.015 /K.
